Experimental data reported in US6355799B1, “Substituted benzene compounds, process for their preparation, and herbicidal and defoliant compositions containing them” (ISK Americas Incorporated, priority 1997, dated 2002).

How the values were obtained:
Type in all cases: in vivo
[1] = tested on: green foxtail (Setaria viridis, SETVI); assay: Post-emerge test, greenhouse herbicide activity screening; settings: post-emerge, phytotoxicity rating 0-100 at 14 days after application
Method in brief: (§1)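 Fourteen days after spraying, crop and weed injury was graded visually from 0, no effect, to 100, every plant dead. Test substances were dissolved in acetone and applied at 15–1000 g ai/ha with a flat-fan nozzle. Application was either pre-emergence, one day after sowing, or post-emergence at the 2–3 leaf stage.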

[2] = tested on: johnsongrass (Sorghum halepense, SORHA); assay: as above; settings: post-emerge, phytotoxicity rating 0-100 at 14 days after application
Method in brief: as §1

[3] = tested on: lambsquarters (Chenopodium album, CHEAL); assay: as above; settings: post-emerge, phytotoxicity rating 0-100 at 14 days after application
Method in brief: as §1

[4] = tested on: sicklepod (Cassia obtusifolia, CASOB); assay: as above; settings: post-emerge, phytotoxicity rating 0-100 at 14 days after application
Method in brief: as §1

[5] = tested on: large crabgrass (Digitaria sanguinalis, DIGSA); assay: as above; settings: post-emerge, phytotoxicity rating 0-100 at 14 days after application
Method in brief: as §1

[6] = tested on: barnyardgrass (Echinochloa crus-galli, ECHCG); assay: as above; settings: post-emerge, phytotoxicity rating 0-100 at 14 days after application
Method in brief: as §1

[7] = tested on: velvetleaf (Abutilon theophrasti, ABUTH); assay: as above; settings: post-emerge, phytotoxicity rating 0-100 at 14 days after application
Method in brief: as §1

[8] = tested on: ivyleaf morningglory (Ipomoea hederacea, IPOHE); assay: as above; settings: post-emerge, phytotoxicity rating 0-100 at 14 days after application
Method in brief: as §1

[9] = tested on: redroot pigweed (Amaranthus retroflexus, AMARE); assay: as above; settings: post-emerge, phytotoxicity rating 0-100 at 14 days after application
Method in brief: as §1

[10] = tested on: green foxtail (Setaria viridis, SETVI); assay: Pre-emerge test, greenhouse herbicide activity screening; settings: pre-emerge, phytotoxicity rating 0-100 at 14 days after application
Method in brief: (§2)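 Compounds in acetone were track-sprayed at 187 l/ha, 15–1000 g ai/ha, onto sandy loam pots. Pre-emerge seeds were sown one day before spraying, with surface watering afterwards. Post-emerge plants were at the 2–3 leaf stage and sprayed with 0.25% v/v non-ionic surfactant. Injury was rated 0–100 at 14 days.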

[11] = tested on: lambsquarters (Chenopodium album, CHEAL); assay: as above; settings: pre-emerge, phytotoxicity rating 0-100 at 14 days after application
Method in brief: as §2

[12] = tested on: sicklepod (Cassia obtusifolia, CASOB); assay: as above; settings: pre-emerge, phytotoxicity rating 0-100 at 14 days after application
Method in brief: as §2

[13] = tested on: large crabgrass (Digitaria sanguinalis, DIGSA); assay: as above; settings: pre-emerge, phytotoxicity rating 0-100 at 14 days after application
Method in brief: as §2

[14] = tested on: barnyardgrass (Echinochloa crus-galli, ECHCG); assay: as above; settings: pre-emerge, phytotoxicity rating 0-100 at 14 days after application
Method in brief: as §2

[15] = tested on: velvetleaf (Abutilon theophrasti, ABUTH); assay: as above; settings: pre-emerge, phytotoxicity rating 0-100 at 14 days after application
Method in brief: as §2

[16] = tested on: ivyleaf morningglory (Ipomoea hederacea, IPOHE); assay: as above; settings: pre-emerge, phytotoxicity rating 0-100 at 14 days after application
Method in brief: as §2

[17] = tested on: upland rice (Oryza sp., var. Tebonnet, RICE); assay: Post-emerge test, crop safety; settings: post-emerge, crop damage rating 0-100 at 14 days after application
Method in brief: as §2

[18] = tested on: field corn (Zea mays L., var. Dekalb 535, CORN); assay: Post-emerge test, crop safety; settings: post-emerge, crop damage rating 0-100 at 14 days after application
Method in brief: as §2

[19] = tested on: upland rice (Oryza sp., var. Tebonnet, RICE); assay: Pre-emerge test, crop safety; settings: crop damage, pre-emerge, phytotoxicity rating 0-100 at 14 days after application
Method in brief: (§3)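 Plants grown in 10 cm pots of sandy loam mix received acetone-dissolved compounds through a moving flat-fan nozzle. Doses ranged from 15 to 1000 g ai/ha. Pre-emerge pots were seeded one day earlier, post-emerge pots 8–21 days earlier. Fourteen days on, each pot was graded 0–100 for damage.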

[20] = tested on: field corn (Zea mays L., var. Dekalb 535, CORN); assay: Pre-emerge test, crop safety; settings: crop damage, pre-emerge, phytotoxicity rating 0-100 at 14 days after application
Method in brief: as §3

[21] = tested on: redroot pigweed (Amaranthus retroflexus, AMARE); assay: Pre-emerge test, greenhouse herbicide activity screening; settings: pre-emerge, phytotoxicity rating 0-100 at 14 days after application
Method in brief: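 Sandy loam pots; pre-emerge: sown 1 d pre-spray, surface-watered after, then bottom-watered. Post-emerge: sown 8–21 d before, 2–3 leaf stage, + 0.25% v/v NIS, bottom-watered. Acetone, 187 l/ha track spray, 15–1000 g ai/ha. 0–100 injury score, day 14.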

## Cc1nn(-c2c(F)cc(Cl)cc2NC(=O)c2ccc(F)cc2F)c(=O)n1C(F)F [Compound 6-23]
[1]; 63 g ai/ha
  Post-emerge Herbicidal Activity SETVI: 0
[1]; 250 g ai/ha
  Post-emerge Herbicidal Activity SETVI: 30
[2]; 63 g ai/ha
  Post-emerge Herbicidal Activity SORHA: 0
[2]; 250 g ai/ha
  Post-emerge Herbicidal Activity SORHA: 0
[3]; 63 g ai/ha
  Post-emerge Herbicidal Activity CHEAL: 20
[3]; 250 g ai/ha
  Post-emerge Herbicidal Activity CHEAL: 70
[4]; 63 g ai/ha
  Post-emerge Herbicidal Activity CASOB: 0
[4]; 250 g ai/ha
  Post-emerge Herbicidal Activity CASOB: 10
[5]; 63 g ai/ha
  Post-emerge Herbicidal Activity DIGSA: 0
[5]; 250 g ai/ha
  Post-emerge Herbicidal Activity DIGSA: 10
[6]; 63 g ai/ha
  Post-emerge Herbicidal Activity ECHCG: 0
[6]; 250 g ai/ha
  Post-emerge Herbicidal Activity ECHCG: 0
[7]; 63 g ai/ha
  Post-emerge Herbicidal Activity ABUTH: 40
[7]; 250 g ai/ha
  Post-emerge Herbicidal Activity ABUTH: 55
[8]; 63 g ai/ha
  Post-emerge Herbicidal Activity IPOHE: 10
[8]; 250 g ai/ha
  Post-emerge Herbicidal Activity IPOHE: 30
[9]; 63 g ai/ha
  Post-emerge Herbicidal Activity AMARE: 20
[9]; 250 g ai/ha
  Post-emerge Herbicidal Activity AMARE: 85
[10]; rate 63 g ai/ha
  Pre-emerge Herbicidal Activity SETVI: 0
[10]; rate 250 g ai/ha
  Pre-emerge Herbicidal Activity SETVI: 60
[11]; rate 63 g ai/ha
  Pre-emerge Herbicidal Activity CHEAL: 30
[11]; rate 250 g ai/ha
  Pre-emerge Herbicidal Activity CHEAL: 100
[12]; rate 63 g ai/ha
  Pre-emerge Herbicidal Activity CASOB: 0
[12]; rate 250 g ai/ha
  Pre-emerge Herbicidal Activity CASOB: 10
[13]; rate 63 g ai/ha
  Pre-emerge Herbicidal Activity DIGSA: 0
[13]; rate 250 g ai/ha
  Pre-emerge Herbicidal Activity DIGSA: 10
[14]; rate 63 g ai/ha
  Pre-emerge Herbicidal Activity ECHCG: 0
[14]; rate 250 g ai/ha
  Pre-emerge Herbicidal Activity ECHCG: 0
[15]; rate 63 g ai/ha
  Pre-emerge Herbicidal Activity ABUTH: 0
[15]; rate 250 g ai/ha
  Pre-emerge Herbicidal Activity ABUTH: 50
[16]; rate 63 g ai/ha
  Pre-emerge Herbicidal Activity IPOHE: 0
[16]; rate 250 g ai/ha
  Pre-emerge Herbicidal Activity IPOHE: 20
[17]; 63 g ai/ha
  Post-emerge Herbicidal Activity RICE: 0
[17]; 250 g ai/ha
  Post-emerge Herbicidal Activity RICE: 15
[18]; 63 g ai/ha
  Post-emerge Herbicidal Activity CORN: 0
[18]; 250 g ai/ha
  Post-emerge Herbicidal Activity CORN: 15
[19]; rate 63 g ai/ha
  Pre-emerge Herbicidal Activity RICE: 0
[19]; rate 250 g ai/ha
  Pre-emerge Herbicidal Activity RICE: 0
[20]; rate 63 g ai/ha
  Pre-emerge Herbicidal Activity CORN: 0
[20]; rate 250 g ai/ha
  Pre-emerge Herbicidal Activity CORN: 0
[21]; rate 63 g ai/ha
  Pre-emerge Herbicidal Activity AMARE: 50
[21]; rate 250 g ai/ha
  Pre-emerge Herbicidal Activity AMARE: 100

## COc1c(Cl)cc(F)c(-n2nc(C)n(C(F)F)c2=O)c1NC(=O)c1ccc(F)cc1F [Compound 6-14]
[1]; 63 g ai/ha
  Post-emerge Herbicidal Activity SETVI: 90
[1]; 250 g ai/ha
  Post-emerge Herbicidal Activity SETVI: 100
[2]; 63 g ai/ha
  Post-emerge Herbicidal Activity SORHA: 30
[2]; 250 g ai/ha
  Post-emerge Herbicidal Activity SORHA: 90
[3]; 63 g ai/ha
  Post-emerge Herbicidal Activity CHEAL: 100
[3]; 250 g ai/ha
  Post-emerge Herbicidal Activity CHEAL: 100
[4]; 63 g ai/ha
  Post-emerge Herbicidal Activity CASOB: 60
[4]; 250 g ai/ha
  Post-emerge Herbicidal Activity CASOB: 90
[5]; 63 g ai/ha
  Post-emerge Herbicidal Activity DIGSA: 60
[5]; 250 g ai/ha
  Post-emerge Herbicidal Activity DIGSA: 90
[6]; 63 g ai/ha
  Post-emerge Herbicidal Activity ECHCG: 20
[6]; 250 g ai/ha
  Post-emerge Herbicidal Activity ECHCG: 90
[7]; 63 g ai/ha
  Post-emerge Herbicidal Activity ABUTH: 100
[7]; 250 g ai/ha
  Post-emerge Herbicidal Activity ABUTH: 100
[8]; 63 g ai/ha
  Post-emerge Herbicidal Activity IPOHE: 100
[8]; 250 g ai/ha
  Post-emerge Herbicidal Activity IPOHE: 100
[9]; 63 g ai/ha
  Post-emerge Herbicidal Activity AMARE: 80
[9]; 250 g ai/ha
  Post-emerge Herbicidal Activity AMARE: 100
[10]; rate 63 g ai/ha
  Pre-emerge Herbicidal Activity SETVI: 100
[10]; rate 250 g ai/ha
  Pre-emerge Herbicidal Activity SETVI: 100
[11]; rate 63 g ai/ha
  Pre-emerge Herbicidal Activity CHEAL: 100
[11]; rate 250 g ai/ha
  Pre-emerge Herbicidal Activity CHEAL: 100
[12]; rate 63 g ai/ha
  Pre-emerge Herbicidal Activity CASOB: 40
[12]; rate 250 g ai/ha
  Pre-emerge Herbicidal Activity CASOB: 60
[13]; rate 63 g ai/ha
  Pre-emerge Herbicidal Activity DIGSA: 100
[13]; rate 250 g ai/ha
  Pre-emerge Herbicidal Activity DIGSA: 100
[14]; rate 63 g ai/ha
  Pre-emerge Herbicidal Activity ECHCG: 100
[14]; rate 250 g ai/ha
  Pre-emerge Herbicidal Activity ECHCG: 100
[15]; rate 63 g ai/ha
  Pre-emerge Herbicidal Activity ABUTH: 100
[15]; rate 250 g ai/ha
  Pre-emerge Herbicidal Activity ABUTH: 100
[16]; rate 63 g ai/ha
  Pre-emerge Herbicidal Activity IPOHE: 60
[16]; rate 250 g ai/ha
  Pre-emerge Herbicidal Activity IPOHE: 100
[17]; 63 g ai/ha
  Post-emerge Herbicidal Activity RICE: 60
[17]; 250 g ai/ha
  Post-emerge Herbicidal Activity RICE: 90
[18]; 63 g ai/ha
  Post-emerge Herbicidal Activity CORN: 60
[18]; 250 g ai/ha
  Post-emerge Herbicidal Activity CORN: 100
[19]; rate 63 g ai/ha
  Pre-emerge Herbicidal Activity RICE: 90
[19]; rate 250 g ai/ha
  Pre-emerge Herbicidal Activity RICE: 100
[20]; rate 63 g ai/ha
  Pre-emerge Herbicidal Activity CORN: 90
[20]; rate 250 g ai/ha
  Pre-emerge Herbicidal Activity CORN: 100
[21]; rate 63 g ai/ha
  Pre-emerge Herbicidal Activity AMARE: 90
[21]; rate 250 g ai/ha
  Pre-emerge Herbicidal Activity AMARE: 100
